# Measurements as given in US5595995A, “Pyridyl-propan-2-yl esters of 1-adamantane carboxylates” (priority 1992, dated 1997).
# What was measured:
# a species of yeast = details: Korytnyk and Fricke, J. Med. Chem. 11, 180-181 (1968); cited from earlier work
# [1] = test system: acute toxicity in mice of 4-vinylpyridine; details: J. Med. Chem. 16, 865-867 (1973); cited from earlier work
# hydroxylase = biological target: T1, hydroxylase (Homo sapiens, UniProt P05093); experiment: biochemical
# T1 sequence (P05093 1-508): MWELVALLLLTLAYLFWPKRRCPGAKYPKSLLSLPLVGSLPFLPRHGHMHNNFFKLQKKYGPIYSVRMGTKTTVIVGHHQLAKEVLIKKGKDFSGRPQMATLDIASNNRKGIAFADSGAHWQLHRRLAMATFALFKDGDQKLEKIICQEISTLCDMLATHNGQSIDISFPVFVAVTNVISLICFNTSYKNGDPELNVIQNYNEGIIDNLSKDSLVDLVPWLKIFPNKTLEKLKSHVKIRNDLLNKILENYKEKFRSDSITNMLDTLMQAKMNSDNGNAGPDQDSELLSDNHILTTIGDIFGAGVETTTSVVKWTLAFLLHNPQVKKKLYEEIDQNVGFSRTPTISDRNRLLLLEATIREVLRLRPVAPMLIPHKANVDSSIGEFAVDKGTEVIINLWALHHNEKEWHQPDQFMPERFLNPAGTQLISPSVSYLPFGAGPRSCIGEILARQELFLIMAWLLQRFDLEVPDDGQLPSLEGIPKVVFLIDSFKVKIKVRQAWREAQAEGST
# Method: (§1) In the hydroxylase assay, the "Nucleosil" pre-column for separation of steroids was also "C18". In the lyase assay, the reaction was stopped after 1/2 hour. […] The enzyme activity was measured from 3 (not 4) concentrations of compound.
# lyase = biological target: T2, lyase (Homo sapiens, UniProt P05093); experiment: biochemical
# T2 sequence (P05093 1-508): T1 sequence (P05093 1-508)
# Method: as §1
# aromatase = biological target: T3, aromatase (Homo sapiens, UniProt P11511); experiment: biochemical
# T3 sequence (P11511 1-503): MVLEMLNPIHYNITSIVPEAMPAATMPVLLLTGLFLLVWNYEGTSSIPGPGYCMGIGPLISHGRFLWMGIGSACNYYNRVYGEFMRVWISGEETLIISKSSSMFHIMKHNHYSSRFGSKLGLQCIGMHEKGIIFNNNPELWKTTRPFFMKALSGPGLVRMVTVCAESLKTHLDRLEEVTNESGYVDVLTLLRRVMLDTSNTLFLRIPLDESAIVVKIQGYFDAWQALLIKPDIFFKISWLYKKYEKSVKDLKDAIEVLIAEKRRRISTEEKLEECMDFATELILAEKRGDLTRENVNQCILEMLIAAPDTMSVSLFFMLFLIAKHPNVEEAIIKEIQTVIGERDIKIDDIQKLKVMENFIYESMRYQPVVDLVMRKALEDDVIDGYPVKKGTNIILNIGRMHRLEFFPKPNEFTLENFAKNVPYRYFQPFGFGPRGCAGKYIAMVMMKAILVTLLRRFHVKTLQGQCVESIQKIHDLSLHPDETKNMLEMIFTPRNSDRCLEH
# [2] = biological target: T4, 17α-hydroxylase/C17-20 lyase enzyme complex (Homo sapiens, UniProt P05093); experiment: hydroxylase/lyase inhibition, general statements on potency; assay type: biochemical; details: of the order of; greater than the less good compounds of formula (3)
# T4 construct: for hydroxylase determinations, the microsomal preparation, prepared according to S. E. Bartie et al; from tissue
# T4 sequence (P05093 1-508): T1 sequence (P05093 1-508)
# Method: as §1
# [3] = resistance of the esters to hydrolytic cleavage (method of R. McCague et al., 1990); details: compared with the other esters of Examples 1-8
IC50 (hydroxylase) [nM],IC50 (lyase) [nM],IC50 (aromatase) [nM],Structure (SMILES),further results
,,,Cc1c(COC(=O)C23CC4CC(CC(C4)C2)C3)cc(CO)nc1O,growth inhibition of yeast (a species of yeast): weak growth inhibitors of a species of yeast
,,,Cc1c(COC(=O)C23CC4CC(CC(C4)C2)C3)cnc(CO)c1O,reversal of the acute toxicity of 4-vinylpyridine [1]: reverse the acute toxicity in mice of 4-vinylpyridine; growth inhibition of yeast (a species of yeast): weak growth inhibitors of a species of yeast
1300,500,1400,"CC(CC(=O)C12CC3CC(CC(C3)C1)C2)c1cccnc1 (racemic) [Example 10, (±)-1-(1-Adamantyl)-3-(3-pyridyl)butan-1-one]",
1000,700,2700,"CC(Cc1cccnc1)C(=O)C12CC3CC(CC(C3)C1)C2 (racemic) [Example 11, (±)-1-(1-Adamantyl)-2-methyl-3-(3-pyridyl)propan-1-one]",
,,,"CC(C)(OC(=O)C12CC3CC(CC(C3)C1)C2)c1ccncc1 [Example 4, 2-(4-Pyridyl)propan-2-yl 1-adamantanecarboxylate]",resistance to hydrolytic cleavage [3]: considerably more resistant to cleavage than the other esters
,,,"CC(C)(OC(=O)C12CC3CC(CC(C3)C1)C2)c1cccnc1 [Example 8, 2-(3-Pyridyl)propan-2-yl 1-adamantanecarboxylate]",resistance to hydrolytic cleavage [3]: considerably more resistant to cleavage than the other esters
2200,450,3400,"O=C(CCc1cccnc1)C12CC3CC(CC(C3)C1)C2 [Example 9, 1-(1-Adamantyl)-3-(3-pyridyl)propan-1-one]",

Structure (SMILES),IC50 (hydroxylase) [nM],IC50 (lyase) [nM],IC50 (aromatase) [nM],further results
"O=C(NCc1ccncc1)C1CCCCC1 [Cy NH H H 4, reference compound]",40000,10000,,IC50 against lyase and hydroxylase relative to the less good compounds of formula (3) [2]: ~20 ×
